Experimental data published in patent US8987314B2, “Amide, urea or sulfone amide linked benzothiazole inhibitors of endothelial lipase” (Bristol-Myers Squibb Company, priority 2012, dated 2015).

Molecular target: Endothelial lipase (EL) (Homo sapiens (Human), UniProt Q9Y5X9)
Assay: EL assay: endothelial lipase activity with fluorescent substrate A10070 in DMPG vesicles
Format: biochemical
Conditions: EL from conditioned media of HT-1080 cells; 30 min incubation with compound at 37° C.; A10070/DMPG vesicles
Protocol: Endothelial lipase (EL) and hepatic lipase (HL) activities were measured using a fluorescent substrate, A10070, (Invitrogen, CA) doped into an artificial vesicle containing DMPG (Avanti Polar Lipids) as the excipient. Vesicles were prepared by combining 571 μL of 29 mM DMPG in a 1:1 mixture of MeOH and CHCl3 with 2000 μL of 1 mM A10070 in a 1:1 mixture of MeOH and CHCl3. The mixture was dried under nitrogen in multiple vials then resuspended in 20 mL total volume of 50 mM HEPES pH 8.0 buffer containing 50 mM NaCl and 0.2 mM EDTA. The sample was allowed to sit at room temperature for 15 min and then was sonicated 3×4 mins on ice with a Branson Sonicator using duty cycle 1. This preparation provides vesicles with a mole fraction of 0.11 for the FRET substrate.
The enzymatic assay was measured using 384-well white Optiplates. Each well contained 20 μL of assay buffer (50 mM HEPES pH 8.0, 50 mM NaCl and 1 mM CaCl2) and 0.25 μL of a DMSO solution containing a compound of interest. EL or HL (10 μL) was added and allowed to incubate with the compound for 30 min at 37° C. The source of EL was conditioned media obtained from HT-1080 cells that were transformed using RAGE technology (Athersys) to overexpress endogenous EL, and HL was partially purified from conditioned media obtained from COS cells overexpressing HL. The reaction was started by the addition of 10 μL of a 1:10 dilution of vesicles. The final total reaction volume was […]. The reaction rates were measured on a Gemini plate reader with an excitation wavelength of 490 nm and an emission wavelength of 530 nm. Readings were taken over a period of 60 minutes, and the slope between 300 and 900 secs of the readout was used to calculate the rate of the reaction.

Chain of Endothelial lipase (EL) (Q9Y5X9 21-500): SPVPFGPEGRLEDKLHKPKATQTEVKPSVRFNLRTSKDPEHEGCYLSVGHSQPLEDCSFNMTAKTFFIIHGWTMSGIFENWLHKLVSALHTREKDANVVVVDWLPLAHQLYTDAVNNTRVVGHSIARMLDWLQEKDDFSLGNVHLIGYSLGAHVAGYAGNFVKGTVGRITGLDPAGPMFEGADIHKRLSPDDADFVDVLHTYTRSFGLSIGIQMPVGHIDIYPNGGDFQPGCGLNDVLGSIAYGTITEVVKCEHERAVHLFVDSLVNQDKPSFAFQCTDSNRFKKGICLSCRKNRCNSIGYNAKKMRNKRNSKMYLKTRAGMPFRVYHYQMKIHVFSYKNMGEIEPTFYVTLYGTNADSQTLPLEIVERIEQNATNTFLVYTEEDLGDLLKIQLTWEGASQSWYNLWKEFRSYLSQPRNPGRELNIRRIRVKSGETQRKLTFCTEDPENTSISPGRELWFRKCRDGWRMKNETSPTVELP

Row | Structure (SMILES) | IC50 [nM]
1 | NS(=O)(=O)CCNC(=O)C(NC(=O)c1ccc(C(F)(F)F)cc1)c1nc2ccc(-c3ccc(F)nc3)cc2s1 (stereo not drawn) [Example A1, N-(1-(6-(6-Fluoropyridin-3-yl)benzo[d]thiazol-2-yl)-2-oxo-2-((2-sulfamoylethyl)amino)ethyl)-4-(trifluoromethyl)benzamide] | 35
2 | CCCC(=O)NC(C(=O)NCCS(N)(=O)=O)c1nc2ccc(-c3ccc(F)nc3)cc2s1 (stereo not drawn) [Example A3, N-(1-(6-(6-fluoropyridin-3-yl)benzo[d]thiazol-2-yl)-2-oxo-2-((2-sulfamoylethyl)amino)ethyl)butyramide] | < 10
3 | NS(=O)(=O)CCNC(=O)C(NC(=O)C(F)F)c1nc2ccc(-c3ccc(F)nc3)cc2s1 (stereo not drawn) [Example A4, 2-(2,2-difluoroacetamido)-2-(6-(6-fluoropyridin-3-yl)benzo[d]thiazol-2-yl)-N-(2-sulfamoylethyl)acetamide] | < 10
4 | CCCC(=O)NC(C(=O)NCCS(N)(=O)=O)c1nc2ccc(-c3ccc(C(=O)N4CCOCC4)cc3)cc2s1 (stereo not drawn) [Example A5, N-(1-(6-(4-(morpholine-4-carbonyl)phenyl)benzo[d]thiazol-2-yl)-2-oxo-2-((2-sulfamoylethyl)amino)ethyl)butyramide] | < 10
5 | NS(=O)(=O)CCNC(=O)C(NC(=O)c1cccnc1)c1nc2ccc(-c3ccc(C(=O)N4CCOCC4)cc3)cc2s1 (stereo not drawn) [Example A6, N-(1-(6-(4-(morpholine-4-carbonyl)phenyl)benzo[d]thiazol-2-yl)-2-oxo-2-((2-sulfamoylethyl)amino)ethyl)nicotinamide] | < 10
6 | NS(=O)(=O)CCNC(=O)C(NC(=O)c1ccc(C(F)(F)F)cc1)c1nc2ccc(-c3ccc(C(=O)N4CCOCC4)cc3)cc2s1 (stereo not drawn) [Example A7] | < 10
7 | CC(=O)NC(C(=O)NCc1nnc(C)o1)c1nc2ccc(-c3ccc(F)cc3)cc2s1 (stereo not drawn) [Example A8, 2-acetamido-2-(6-(4-fluorophenyl)benzo[d]thiazol-2-yl)-N-((5-methyl-1,3,4-oxadiazol-2-yl)methyl)acetamide] | < 10
8 | Cc1nnc(CNC(=O)C(NC(=O)NCc2ccccc2)c2nc3ccc(-c4ccc(F)cc4)cc3s2)o1 (stereo not drawn) [Example A9, 2-(3-Benzylureido)-2-(6-(4-fluorophenyl)benzo[d]thiazol-2-yl)-N-((5-methyl-1,3,4-oxadiazol-2-yl)methyl)acetamide] | 50
9 | CS(=O)(=O)C(C(=O)NCCS(N)(=O)=O)c1nc2ccc(-c3ccccc3)cc2s1 (stereo not drawn) [Example B1, 2-(Methylsulfonyl)-2-(6-phenylbenzo[d]thiazol-2-yl)-N-(2-sulfamoylethyl)acetamide] | < 10
10 | C=CCS(=O)(=O)C(C(=O)NCCS(N)(=O)=O)c1nc2ccc(-c3ccccc3)cc2s1 (stereo not drawn) [Example B2, 2-(Allylsulfonyl)-2-(6-phenylbenzo[d]thiazol-2-yl)-N-(2-sulfamoylethyl)acetamide] | < 10
11 | CS(=O)(=O)C(C(=O)NCCS(N)(=O)=O)c1nc2ccc(-c3ccc(F)nc3)cc2s1 (stereo not drawn) [Example B3, 2-(6-(6-fluoro-3-pyridinyl)-1,3-benzothiazol-2-yl)-2-(methylsulfonyl)-N-(2-sulfamoylethyl)acetamide] | < 10
12 | Cc1noc(C)c1-c1ccc2nc(C(C(=O)NCCS(N)(=O)=O)S(C)(=O)=O)sc2c1 (stereo not drawn) [Example B4, 2-(6-(3,5-dimethyl-4-isoxazolyl)-1,3-benzothiazol-2-yl)-2-(methylsulfonyl)-N-(2-sulfamoylethyl)acetamide] | 13
13 | NS(=O)(=O)CCNC(=O)C(c1nc2ccc(-c3ccc(F)nc3)cc2s1)S(=O)(=O)Cc1ccccc1 (stereo not drawn) [Example B5, 2-(benzylsulfonyl)-2-(6-(6-fluoro-3-pyridinyl)-1,3-benzothiazol-2-yl)-N-(2-sulfamoylethyl)acetamide] | < 10
14 | NS(=O)(=O)CCNC(=O)C(c1nc2ccc(-c3ccc(F)nc3)cc2s1)S(=O)(=O)Cc1ccc(C(F)(F)F)cc1 (stereo not drawn) [Example B6, 2-(6-(6-fluoro-3-pyridinyl)-1,3-benzothiazol-2-yl)-N-(2-sulfamoylethyl)-2-((4-(trifluoromethyl)benzyl)sulfonyl)acetamide] | < 10
15 | NS(=O)(=O)CCNC(=O)C(c1nc2ccc(-c3ccc(F)nc3)cc2s1)S(=O)(=O)CCC(F)(F)F (stereo not drawn) [Example B7, 2-(6-(6-fluoropyridin-3-yl)benzo[d]thiazol-2-yl)-N-(2-sulfamoylethyl)-2-((3,3,3-trifluoropropyl)sulfonyl)acetamide] | < 10
16 | CS(=O)(=O)C(C(=O)NCCS(N)(=O)=O)c1nc2ccc(-c3ccnc(F)c3)cc2s1 (stereo not drawn) [Example B8, 2-(6-(2-fluoro-4-pyridinyl)-1,3-benzothiazol-2-yl)-2-(methylsulfonyl)-N-(2-sulfamoylethyl)acetamide] | < 10
17 | CS(=O)(=O)C(C(=O)NCCS(N)(=O)=O)c1nc2ccc(-c3ccnc(Cl)c3)cc2s1 (stereo not drawn) [Example B9, 2-(6-(2-chloro-4-pyridinyl)-1,3-benzothiazol-2-yl)-2-(methylsulfonyl)-N-(2-sulfamoylethyl)acetamide] | < 10
18 | CS(=O)(=O)C(C(=O)NCCS(N)(=O)=O)c1nc2ccc(-c3ccc(Cl)nc3)cc2s1 (stereo not drawn) [Example B10, 2-(6-(6-chloro-3-pyridinyl)-1,3-benzothiazol-2-yl)-2-(methylsulfonyl)-N-(2-sulfamoylethyl)acetamide] | < 10

Further lines, results first:

Row | IC50 [nM] | Structure (SMILES)
19 | < 10 | CC(C)S(=O)(=O)C(C(=O)NCCS(N)(=O)=O)c1nc2ccc(-c3ccc(F)nc3)cc2s1 (stereo not drawn) [Example B12, 2-(6-(6-fluoro-3-pyridinyl)-1,3-benzothiazol-2-yl)-2-(isopropylsulfonyl)-N-(2-sulfamoylethyl)acetamide]
20 | < 10 | CS(=O)(=O)C(C(=O)NCCS(N)(=O)=O)c1nc2ccc(-c3ccc(CN4CCOCC4)cc3)cc2s1 (stereo not drawn) [Example B13, 2-(methylsulfonyl)-2-(6-(4-(4-morpholinylmethyl)phenyl)-1,3-benzothiazol-2-yl)-N-(2-sulfamoylethyl)acetamide]
21 | < 10 | C=CCS(=O)(=O)C(C(=O)NCCS(N)(=O)=O)c1nc2ccc(-c3ccc(CN4CCOCC4)cc3)cc2s1 (stereo not drawn) [Example B14, 2-(allylsulfonyl)-2-(6-(4-(4-morpholinylmethyl)phenyl)-1,3-benzothiazol-2-yl)-N-(2-sulfamoylethyl)acetamide]
22 | < 10 | CCCS(=O)(=O)C(C(=O)NCCS(N)(=O)=O)c1nc2ccc(-c3ccnc(F)c3)cc2s1 (stereo not drawn) [Example B15, 2-(6-(2-fluoro-4-pyridinyl)-1,3-benzothiazol-2-yl)-2-(propylsulfonyl)-N-(2-sulfamoylethyl)acetamide]
23 | 40 | CC(=O)Nc1ccc(-c2ccc3nc(C(C(=O)NCCS(N)(=O)=O)S(C)(=O)=O)sc3c2)cc1 (stereo not drawn) [Example B16, 2-(6-(4-acetamidophenyl)-1,3-benzothiazol-2-yl)-2-(methylsulfonyl)-N-(2-sulfamoylethyl)acetamide]
24 | < 10 | CN(C)S(=O)(=O)c1ccc(-c2ccc3nc(C(C(=O)NCCS(N)(=O)=O)S(C)(=O)=O)sc3c2)cc1 (stereo not drawn) [Example B17, 2-(6-(4-(dimethylsulfamoyl)phenyl)-1,3-benzothiazol-2-yl)-2-(methylsulfonyl)-N-(2-sulfamoylethyl)acetamide]
25 | 13 | CNc1ccc(-c2ccc3nc(C(C(=O)NCCS(N)(=O)=O)S(C)(=O)=O)sc3c2)cc1 (stereo not drawn) [Example B18, 2-(6-(4-(methylamino)phenyl)-1,3-benzothiazol-2-yl)-2-(methylsulfonyl)-N-(2-sulfamoylethyl)acetamide]
26 | < 10 | COc1ccc(-c2ccc3nc(C(C(=O)NCCS(N)(=O)=O)S(C)(=O)=O)sc3c2)cn1 (stereo not drawn) [Example B19, 2-(6-(6-methoxy-3-pyridinyl)-1,3-benzothiazol-2-yl)-2-(methylsulfonyl)-N-(2-sulfamoylethyl)acetamide]
27 | < 10 | CS(=O)(=O)C(C(=O)NCCS(N)(=O)=O)c1nc2ccc(-c3ccc(N4CCOCC4)cc3)cc2s1 (stereo not drawn) [Example B20, 2-(methylsulfonyl)-2-(6-(4-(4-morpholinyl)phenyl)-1,3-benzothiazol-2-yl)-N-(2-sulfamoylethyl)acetamide]
28 | < 10 | CS(=O)(=O)C(C(=O)NCCS(N)(=O)=O)c1nc2ccc(-c3ccc(-n4cccn4)cc3)cc2s1 (stereo not drawn) [Example B21, 2-(methylsulfonyl)-2-(6-(4-(1H-pyrazol-1-yl)phenyl)-1,3-benzothiazol-2-yl)-N-(2-sulfamoylethyl)acetamide]
29 | < 10 | COC(=O)Nc1ccc(-c2ccc3nc(C(C(=O)NCCS(N)(=O)=O)S(C)(=O)=O)sc3c2)cc1 (stereo not drawn) [Example B22, methyl (4-(2-(1-(methylsulfonyl)-2-oxo-2-((2-sulfamoylethyl)amino)ethyl)-1,3-benzothiazol-6-yl)phenyl)carbamate]
30 | 210 | CS(=O)(=O)CCNC(=O)C(c1nc2ccc(-c3ccnc(F)c3)cc2s1)S(C)(=O)=O (stereo not drawn) [Example B23, 2-(6-(2-Fluoro-4-pyridinyl)-1,3-benzothiazol-2-yl)-2-(methylsulfonyl)-N-(2-(methylsulfonyl)ethyl)acetamide]
